From ChEMBL document CHEMBL1201862, “PubChem BioAssay data set” (2004)
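Method: 48-hour compound exposure of cells in 96-well plates, five concentrations, linear interpolation of endpoints. GI50 is the concentration that inhibits growth by half.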 The source made the active and inactive calls. Rule as the data show it: active = GI50 up to about 1.1 µM and inactive = higher.

What was measured:
Test in all cases: NCI tumour cell line growth inhibition, 48 h
[1] = test system: NCI-H460
[2] = test system: SNB-75
[3] = test system: RXF 393
[4] = test system: NCI-H226
[5] = test system: SK-MEL-28
[6] = test system: DU-145
[7] = test system: OVCAR-8
[8] = test system: NCI-H23
[9] = test system: OVCAR-5
[10] = test system: M14
[11] = test system: MCF7
[12] = test system: HL-60
[13] = test system: HCC 2998
[14] = test system: NCI/ADR-RES
[15] = test system: HOP-92
[16] = test system: UACC-257
[17] = test system: RPMI-8226
[18] = test system: IGROV-1
[19] = test system: K562
[20] = test system: SN12C
[21] = test system: Malme-3M
[22] = test system: CAKI-1
[23] = test system: MDA-MB-435
[24] = test system: U-251
[25] = test system: SF-268
[26] = test system: HOP-62
[27] = test system: ACHN
[28] = test system: SR
[29] = test system: SW-620
[30] = test system: MDA-MB-231
[31] = test system: SF-539
[32] = test system: PC-3
[33] = test system: OVCAR-4
[34] = test system: SF-295
[35] = test system: CCRF-CEM
[36] = test system: 786-0
[37] = test system: T47D
[38] = test system: HT-29
[39] = test system: SK-MEL-2
[40] = test system: UACC-62
[41] = test system: NCI-H522
[42] = test system: UO-31
[43] = test system: OVCAR-3
[44] = test system: COLO 205
[45] = test system: MDA-N
[46] = test system: SK-OV-3
[47] = test system: HCT-15
[48] = test system: EKVX
[49] = test system: SNB-19
[50] = test system: MOLT-4
[51] = test system: A549
[52] = test system: HCT-116
[53] = test system: KM12
[54] = test system: A498
[55] = test system: BT-549
[56] = test system: LOX IMVI
[57] = test system: Hs-578T
[58] = test system: TK-10
[59] = test system: SK-MEL-5

Which results are given for `CCCCc1ccc(N2C(=O)c3cccnc3S2(=O)=O)cc1`?
GI50 [1]: > 100 µM (inactive); GI50 [2]: > 100 µM (inactive); GI50 [3]: > 100 µM (inactive); GI50 [4]: > 100 µM (inactive); GI50 [5]: > 100 µM (inactive); GI50 [6]: > 100 µM (inactive); GI50 [7]: > 100 µM (inactive); GI50 [8]: > 100 µM (inactive); GI50 [9]: > 100 µM (inactive); GI50 [10]: > 100 µM (inactive); GI50 [11]: > 100 µM (inactive); GI50 [12]: > 100 µM (inactive); GI50 [13]: > 100 µM (inactive); GI50 [14]: > 100 µM (inactive); GI50 [15]: > 100 µM (inactive); GI50 [16]: > 100 µM (inactive); GI50 [17]: > 100 µM (inactive); GI50 [18]: > 100 µM (inactive); GI50 [19]: > 100 µM (inactive); GI50 [20]: > 100 µM (inactive); GI50 [21]: > 100 µM (inactive); GI50 [22]: > 100 µM (inactive); GI50 [23]: > 100 µM (inactive); GI50 [24]: > 100 µM (inactive); GI50 [25]: > 100 µM (inactive); GI50 [26]: > 100 µM (inactive); GI50 [27]: > 100 µM (inactive); GI50 [28]: > 100 µM (inactive); GI50 [29]: > 100 µM (inactive); GI50 [30]: > 100 µM (inactive); GI50 [31]: > 100 µM (inactive); GI50 [32]: > 100 µM (inactive); GI50 [33]: > 100 µM (inactive); GI50 [34]: > 100 µM (inactive); GI50 [35]: > 100 µM (inactive); GI50 [36]: > 100 µM (inactive); GI50 [37]: > 100 µM (inactive); GI50 [38]: > 100 µM (inactive); GI50 [39]: > 100 µM (inactive); GI50 [40]: > 100 µM (inactive); GI50 [41]: > 100 µM (inactive); GI50 [42]: > 100 µM (inactive); GI50 [43]: > 100 µM (inactive); GI50 [44]: > 100 µM (inactive); GI50 [45]: > 100 µM (inactive); GI50 [46]: > 100 µM (inactive); GI50 [47]: > 100 µM; GI50 [48]: > 100 µM (inactive); GI50 [49]: > 100 µM (inactive); GI50 [50]: > 100 µM (inactive); GI50 [51]: > 100 µM (inactive); GI50 [52]: > 100 µM (inactive); GI50 [53]: > 100 µM (inactive); GI50 [54]: > 100 µM (inactive); GI50 [55]: > 100 µM (inactive)

What does the source list for `CC(=O)OC1OC(c2ccoc2)C[C@@]12C1CCC3O[C@]3(C)[C@]1(C)[C@H](OC(C)=O)[C@H](OC(C)=O)[C@H]2C` (some centres not stated)?
GI50 [1]: > 37.5 µM (inactive); GI50 [3]: > 37.5 µM (inactive); GI50 [4]: > 37.5 µM (inactive); GI50 [5]: > 37.5 µM (inactive); GI50 [7]: > 37.5 µM (inactive); GI50 [8]: 30.3 µM (inactive); GI50 [9]: > 37.5 µM (inactive); GI50 [10]: > 37.5 µM (inactive); GI50 [11]: > 37.5 µM (inactive); GI50 [12]: 6.62 µM (inactive); GI50 [13]: > 37.5 µM (inactive); GI50 [14]: > 37.5 µM (inactive); GI50 [15]: > 37.5 µM (inactive); GI50 [16]: > 37.5 µM (inactive); GI50 [18]: > 37.5 µM (inactive); GI50 [19]: > 37.5 µM (inactive); GI50 [20]: > 37.5 µM (inactive); GI50 [21]: > 37.5 µM (inactive); GI50 [22]: > 37.5 µM (inactive); GI50 [24]: > 37.5 µM (inactive); GI50 [26]: > 37.5 µM (inactive); GI50 [27]: > 37.5 µM (inactive); GI50 [28]: 18.1 µM (inactive); GI50 [29]: > 37.5 µM (inactive); GI50 [30]: > 37.5 µM (inactive); GI50 [31]: > 37.5 µM (inactive); GI50 [32]: > 37.5 µM (inactive); GI50 [33]: > 37.5 µM (inactive); GI50 [34]: > 37.5 µM (inactive); GI50 [35]: 11.2 µM (inactive); GI50 [36]: > 37.5 µM (inactive); GI50 [38]: > 37.5 µM (inactive); GI50 [39]: > 37.5 µM (inactive); GI50 [40]: > 37.5 µM (inactive); GI50 [42]: > 37.5 µM (inactive); GI50 [43]: > 37.5 µM (inactive); GI50 [44]: > 37.5 µM (inactive); GI50 [45]: > 37.5 µM (inactive); GI50 [46]: > 37.5 µM (inactive); GI50 [56]: 28.1 µM (inactive); GI50 [57]: > 37.5 µM (inactive); GI50 [47]: > 37.5 µM; GI50 [48]: > 37.5 µM (inactive); GI50 [49]: > 37.5 µM (inactive); GI50 [50]: 18.5 µM (inactive); GI50 [51]: > 37.5 µM (inactive); GI50 [58]: > 37.5 µM (inactive); GI50 [52]: > 37.5 µM (inactive); GI50 [53]: > 37.5 µM (inactive); GI50 [54]: > 37.5 µM (inactive); GI50 [55]: > 37.5 µM (inactive); GI50 [59]: > 37.5 µM (inactive)
